Test results as given in ChEMBL document CHEMBL5584293, “Discovery and evaluation of novel spiroheterocyclic protective agents via a SIRT1 upregulation mechanism in cisplatin-induced premature ovarian failure” (Bioorg Med Chem, 2024).
Activity calls are given as the source filed them. No cut-off for these calls is given here.

What was measured:
[1] = system: KGN; experiment: Protective effect against cisplatin-induced injury in human KGN cells assessed as cell survival rate at 5 uM incubated for 48 hrs by MTT assay (Rvb ~ 60 %); format: functional; conditions: read-out: Survival
[2] = Cytotoxicity against human PDL cells assessed as cell survival rate at 50 uM incubated for 48 hrs by MTT assay relative to control; format: toxicity, cell-based; conditions: read-out: Survival
[3] = Cytotoxicity against human MIHA cells assessed as cell survival rate at 50 uM incubated for 48 hrs by MTT assay relative to control; format: toxicity, cell-based; conditions: read-out: Survival
[4] = Cytotoxicity against rat NRK cells assessed as cell survival rate at 50 uM incubated for 48 hrs by MTT assay relative to control; format: toxicity, cell-based; conditions: read-out: Survival
[5] = system: Rattus norvegicus; experiment: Protective effect against cisplatin-induced damage in Wistar rat assessed as increase in serum E2 level at 50 mg/kg, IG qd for 14 days by ELISA; format: functional, organism-based; conditions: time 14.0 day
[6] = system: KGN; experiment: Inhibition of cisplatin-induced apoptosis in human KGN cells at 5 uM incubated for 36 hrs by Annexin V-FITC/PI staining based analysis (reference value: 53.9 %); format: functional
[7] = system: Rattus norvegicus; experiment: Protective effect against cisplatin-induced damage in Wistar rat assessed as decrease in uterine wall thinning at 50 mg/kg, IG qd for 14 days by H and E staining based analysis; format: functional, organism-based; conditions: time 14.0 day
[8] = system: KGN; experiment: Protective effect against cisplatin-induced injury in human KGN cells assessed as increase in p-AKT level incubated for 36 hrs by Western blot analysis; format: functional, cell-based; conditions: dose <= 10.0 µM
[9] = system: KGN; experiment: Protective effect against cisplatin-induced injury in human KGN cells assessed as recovery of cellular suspension at 1 to 10 uM by inverted microscopy; format: functional, cell-based; conditions: dose 1-10 µM
[10] = Toxicity in Wistar rat model of cisplatin-induced damage assessed as body weight loss at 50 mg/kg, IG qd for 7 to 14 days; format: organism-based; conditions: in vivo, po, time 7-14 day
[11] = system: KGN; experiment: Cytotoxicity against human KGN cells at 1.25 to 10 uM incubated for 48 hrs by MTT assay; format: toxicity, cell-based; conditions: dose 1.25-10 µM
[12] = system: Rattus norvegicus; experiment: Protective effect against cisplatin-induced damage in Wistar rat assessed as increase in organ indices at 50 mg/kg, IG qd for 14 days; format: functional, organism-based; conditions: time 14.0 day
[13] = system: Rattus norvegicus; experiment: Protective effect against cisplatin-induced damage in Wistar rat assessed as improvement in ovarian structure at 50 mg/kg, IG qd for 14 days by H and E staining based analysis; format: functional, organism-based; conditions: time 14.0 day
[14] = system: Rattus norvegicus; experiment: Protective effect against cisplatin-induced damage in Wistar rat assessed as decrease in atretic follicle numbers in ovaries at 50 mg/kg, IG qd for 14 days by H and E staining based analysis; format: functional, organism-based; conditions: time 14.0 day
[15] = system: KGN; experiment: Protective effect against cisplatin-induced injury in human KGN cells assessed as recovery of cell growth at 1 to 10 uM by inverted microscopy; format: functional, cell-based; conditions: dose 1-10 µM
[16] = system: KGN; experiment: Protective effect against cisplatin-induced injury in human KGN cells assessed as recovery of cell numbers at 1 to 10 uM by inverted microscopy; format: functional, cell-based; conditions: dose 1-10 µM
[17] = system: KGN; experiment: Protective effect against cisplatin-induced injury in human KGN cells assessed as cell survival at 25 to 50 uM incubated for 48 hrs by MTT assay; format: functional, cell-based; conditions: dose 25-50 µM
[18] = system: Rattus norvegicus; experiment: Protective effect against cisplatin-induced damage in Wistar rat assessed as increase in primordial follicle numbers in ovaries at 50 mg/kg, IG qd for 14 days by H and E staining based analysis; format: functional, organism-based; conditions: time 14.0 day
[19] = system: KGN; experiment: Protective effect against cisplatin-induced injury in human KGN cells harboring siSIRT1 at 2.5 uM incubated for 36 hrs by Western blot analysis; format: functional, cell-based
[20] = system: Rattus norvegicus; experiment: Protective effect against cisplatin-induced damage in Wistar rat assessed as increase in growing follicle numbers in ovaries at 50 mg/kg, IG qd for 14 days by H and E staining based analysis; format: functional, organism-based; conditions: time 14.0 day
[21] = system: KGN; experiment: Inhibition of cisplatin-induced apoptosis in human KGN cells assessed as decrease in Bax expression at 1 to 10 uM by immunoblot analysis; format: functional, cell-based; conditions: dose 1-10 µM
[22] = system: KGN; experiment: Protective effect against cisplatin-induced injury in human KGN cells assessed as cell survival rate at 5 uM incubated for 48 hrs by MTT assay (reference value: 65 %); format: functional; conditions: read-out: Survival
[23] = system: KGN; experiment: Inhibition of cisplatin-induced apoptosis in human KGN cells assessed as increase in Bcl-2 expression at 1 to 10 uM by immunoblot analysis; format: functional, cell-based; conditions: dose 1-10 µM
[24] = system: KGN; experiment: Protective effect against cisplatin-induced injury in human KGN cells assessed as recovery of cellular disruption at 1 to 10 uM by inverted microscopy; format: functional, cell-based; conditions: dose 1-10 µM
[25] = system: KGN; experiment: Protective effect against cisplatin-induced injury in human KGN cells assessed as increase in SIRT1 level incubated for 36 hrs by Western blot analysis; format: functional, cell-based; conditions: dose <= 10.0 µM
[26] = system: Rattus norvegicus; experiment: Protective effect against cisplatin-induced damage in Wistar rat assessed as reduction in vascular congestion in ovaries at 50 mg/kg, IG qd for 14 days by H and E staining based analysis; format: functional, organism-based; conditions: time 14.0 day
[27] = system: KGN; experiment: Protective effect against cisplatin-induced injury in human KGN cells assessed as increase in serum E2 level at 1 to 10 uM by ELISA; format: functional, cell-based; conditions: dose 1-10 µM
[28] = system: KGN; experiment: Inhibition of cisplatin-induced apoptosis in human KGN cells at 10 uM incubated for 36 hrs by Annexin V-FITC/PI staining based analysis (reference value: 53.9 %); format: functional
[29] = system: Rattus norvegicus; experiment: Protective effect against cisplatin-induced damage in Wistar rat assessed as increase in sinus follicle numbers in ovaries at 50 mg/kg, IG qd for 14 days by H and E staining based analysis; format: functional, organism-based; conditions: time 14.0 day
[30] = system: Rattus norvegicus; experiment: Protective effect against cisplatin-induced damage in Wistar rat assessed as increase in uterine weight at 50 mg/kg, IG qd for 14 days; format: functional, organism-based; conditions: time 14.0 day
[31] = system: KGN; experiment: Protective effect against cisplatin-induced injury in human KGN cells assessed as increase in cell survival incubated for 48 hrs by MTT assay; format: functional, cell-based; conditions: dose 1.25-10 µM
[32] = system: Rattus norvegicus; experiment: Protective effect against cisplatin-induced damage in Wistar rat assessed as increase in ovarian weight at 50 mg/kg, IG qd for 14 days; format: functional, organism-based; conditions: time 14.0 day
[33] = system: KGN; experiment: Inhibition of cisplatin-induced apoptosis in human KGN cells at 1 uM incubated for 36 hrs by Annexin V-FITC/PI staining based analysis (reference value: 53.9 %); format: functional

With `CC1N[C@@]2(C(=O)c3cccc4cccc2c34)[C@@]2(CCC/C(=C\c3ccccc3)C2=O)[C@H]1c1ccccc1` (stereo partly drawn) the viability at 5 µM [1] was 75.3%.

For `CN1C[C@H](c2ccccc2)[C@]2(CCC/C(=C\c3ccccc3)C2=O)[C@]12C(=O)c1cccc3cccc2c13`, the viability at 48 h, 50 µM [2] was 97.5%, the viability at 48 h, 50 µM [3] was 89.5% and the viability at 48 h, 50 µM [4] was 94%.

With `COc1ccc(/C=C2\CCC[C@@]3(C2=O)[C@@H](c2ccc(OC)c(OC)c2)C(C)N[C@@]32C(=O)c3cccc4cccc2c34)cc1OC` (stereo partly drawn) the Activity [5] was “Active”, the inhibition at 5 µM [6] was 21.1% and the Activity [7] was “Active”. For the same compound, the Activity [8] was “Dose-Dependent Effect”, the Activity [9] was “Active” and the Activity [10] was “Non-Toxic”. The Activity [11] was “Non-Toxic”, the Activity [12] was “Active” and the Activity [13] was “Active”. For the same compound, the Activity [14] was “Active”, the Activity [15] was “Active” and the Activity [16] was “Active”. For the same compound, the Activity [17] was “Active”, the Activity [18] was “Active” and the Activity [19] was “inactive”. The Activity [20] was “Active”, the inhibition [21] was “Active” and the viability at 5 µM [22] was 94%. The inhibition [23] was “Active”, the Activity [24] was “Active” and the Activity [25] was “Dose-Dependent Effect”. The Activity [26] was “Active”, the Activity [27] was “Active” and the inhibition at 10 µM [28] was 27.8%. The Activity [29] was “Active”, the Activity [30] was “Active” and the Activity [31] was “Dose-Dependent Effect”. The Activity [32] was “Active” and the inhibition at 1 µM [33] was 8.6%.
